We go through 39 compounds from US8987445B2, “Sulfonamide compounds having TRPM8 antagonistic activity” (Mitsubishi Tanabe Pharma Corporation, priority 2011, dated 2015).

Chain of human TRPM8 (Q7Z2W7 whole entry): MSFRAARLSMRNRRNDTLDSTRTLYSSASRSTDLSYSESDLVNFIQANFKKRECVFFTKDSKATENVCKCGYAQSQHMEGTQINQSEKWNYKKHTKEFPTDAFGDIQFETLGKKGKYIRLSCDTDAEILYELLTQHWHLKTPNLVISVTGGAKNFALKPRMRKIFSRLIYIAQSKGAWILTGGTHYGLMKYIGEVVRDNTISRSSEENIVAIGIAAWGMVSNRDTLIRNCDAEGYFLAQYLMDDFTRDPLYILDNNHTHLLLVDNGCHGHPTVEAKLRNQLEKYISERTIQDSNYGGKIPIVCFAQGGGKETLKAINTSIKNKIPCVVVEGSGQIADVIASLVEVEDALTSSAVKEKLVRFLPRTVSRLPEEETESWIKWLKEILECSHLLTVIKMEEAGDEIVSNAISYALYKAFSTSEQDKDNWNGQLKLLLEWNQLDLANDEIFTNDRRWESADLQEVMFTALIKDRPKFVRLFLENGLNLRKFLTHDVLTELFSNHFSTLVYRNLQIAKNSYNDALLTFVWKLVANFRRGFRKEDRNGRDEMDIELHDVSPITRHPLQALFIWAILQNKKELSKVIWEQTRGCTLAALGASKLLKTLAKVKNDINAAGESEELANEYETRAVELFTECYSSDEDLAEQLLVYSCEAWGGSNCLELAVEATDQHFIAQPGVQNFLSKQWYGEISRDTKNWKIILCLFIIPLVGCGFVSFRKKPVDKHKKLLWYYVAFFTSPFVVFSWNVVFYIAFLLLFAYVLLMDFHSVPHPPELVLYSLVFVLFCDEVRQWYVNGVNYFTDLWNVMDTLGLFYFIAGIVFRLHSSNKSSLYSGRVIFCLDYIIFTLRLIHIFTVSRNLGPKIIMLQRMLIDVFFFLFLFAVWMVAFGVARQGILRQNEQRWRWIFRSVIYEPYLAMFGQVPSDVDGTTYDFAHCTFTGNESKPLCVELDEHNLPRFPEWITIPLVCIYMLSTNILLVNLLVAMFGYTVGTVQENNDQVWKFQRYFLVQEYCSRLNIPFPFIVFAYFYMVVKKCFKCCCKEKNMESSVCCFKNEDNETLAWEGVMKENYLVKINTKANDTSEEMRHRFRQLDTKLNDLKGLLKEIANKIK

The assay concerns the target human TRPM8 (Homo sapiens (Human), UniProt Q7Z2W7). The experiment in a line: TRPM8 inhibition assay (menthol-induced calcium influx, FDSS). The assay is classed as cell-based. The settings on record: HEK293 cells stably expressing human TRPM8; 100 μM menthol; Fura-2AM Ca2+ signal; read-out: TRPM8 Blocking Test (IC50). The procedure:
The functional activity of compounds was determined by measuring changes in intracellular calcium concentration using a Ca^2+ sensitive fluorescent dye. The changes in fluorescent signal were monitored by the cell imaging technology by Hamamatsu Photonics's Functional Drug Screening System (FDSS). […] HEK293 cells stably expressing human TRPM8 were grown in flasks. On assay day, the culture medium was removed, and cells were washed with phosphate-buffered saline (PBS) and harvested with PBS containing 2 mM ethylenediaminetetraacetic acid, disodium salt (EDTA, 2Na). […] Subsequently, suspended 20,000 to 50,000 cells per well were incubated with test compound (at varying concentrations) in each well for 20 min at 37° C. Changes in intracellular Ca^2+ evoked by 100 μM menthol were measured for 2 min using FDSS. IC50 vales were determined from four-point concentration-response studies. Curves were generated using the average of quadruplicate wells for each data point.
As to `Cc1c(N(Cc2cc3cccc(Cl)c3s2)S(=O)(=O)c2ccc(C(=O)O)cc2)ncc2ccccc12` [Example 199], the IC50 (as a rule, the point on the concentration scale where inhibition reaches its midpoint) is 3.9 nM. As for `Cc1c(N(Cc2ccc(C(C)(O)C(F)(F)F)c(F)c2)S(=O)(=O)c2ccc(C(=O)O)cc2)ncc2ccccc12` (stereo not drawn) [Example 169], the figure is 55 nM; as for `Cc1c(N(Cc2ccc(F)c(C(F)(F)C3CC3)c2)S(=O)(=O)c2ccc(C(=O)O)cc2)ncc2ccccc12` [Example 207], 11 nM; as for `Cc1cc2cccc(Cl)c2nc1N(Cc1ccc(OC(F)(F)F)cc1)S(=O)(=O)c1ccc(C(=O)O)cc1` [Example 133], 4.3 nM. As for `Cc1c(N(C2CCc3cc(OC(F)(F)F)ccc32)S(=O)(=O)c2ccc(C(=O)O)cc2)ncc2ccccc12` (stereo not drawn) [Example 179], the figure is 2.1 nM; as for `Cc1c(N(Cc2nc3ccccc3o2)S(=O)(=O)c2ccc(C(=O)O)cc2)ncc2ccccc12` [Example 127], 195 nM. As for `Cc1c(N(Cc2ccc(OC(F)(F)F)cc2)S(=O)(=O)c2ccc(C(C)(C)O)cc2)ncc2ccccc12` [Example 125, 4-(1-hydroxy-1-methylethyl)-N-(4-methylisoquinolin-3-yl)-N-[4-(trifluoromethoxy)benzyl]benzenesulfonamide], the figure is 62 nM; as for `O=C(O)c1ccc(S(=O)(=O)N(Cc2ccc(OC(F)(F)F)cc2)c2cc3ccccc3c(Br)n2)cc1` [Example 143], 131 nM. For `Cc1c(N(Cc2ccc(-c3ccccc3)nc2)S(=O)(=O)c2ccc(C(=O)O)cc2)ncc2ccccc12` [Example 70], the IC50 turned out to be 95 nM. Next, `Cc1cc2ccccc2nc1N(Cc1ccc(C(F)(F)C2CC2)c(F)c1)S(=O)(=O)c1ccc(C(=O)O)cc1` [Example 204]: 3.1 nM.

Consider `Cc1c(N(Cc2ccc(OC(F)(F)F)cc2)S(=O)(=O)c2ccc(C(=O)O)cc2)nc(C(C)C)c2ccccc12` [Example 225], for which the IC50 came out at 2.8 nM.

For the compound `Cc1c(N(Cc2ccc(CC3(C(F)(F)F)CC3)cc2)S(=O)(=O)c2ccc(C(=O)O)cc2)ncc2ccccc12` [Example 193], the IC50 worked out at 3.9 nM.

Turning to `Cc1c(N(Cc2ccc(CC3CC3)c(F)c2)S(=O)(=O)c2ccc(C(=O)O)cc2)ncc2ccccc12` [Example 170], the IC50 was 2.9 nM. For the compound `CC(C)c1nc(N(Cc2ccc(OC(F)(F)F)cc2)S(=O)(=O)c2ccc(C(=O)O)cc2)c(C(C)C)c2ccccc12` [Example 150], the IC50 was 48 nM. As for `CC(C)c1nc(N(Cc2ccc(OC(F)(F)F)cc2)S(=O)(=O)c2ccc(C(=O)O)cc2)c(C(F)(F)F)c2ccccc12` [Example 110, 4-({[1-isopropyl-4-(trifluoromethyl)isoquinolin-3-yl][4-(trifluoromethoxy)benzyl]amino}sulfonyl)benzoic acid], the figure is 7.4 nM. For the compound `Cc1c(N(Cc2ccc(CC3CC3)cc2)S(=O)(=O)c2ccc(C(=O)O)cc2)ncc2ccccc12` [Example 24], the IC50 was 4.6 nM. With `CCCc1nc(N(Cc2ccc(OC(F)(F)F)cc2)S(=O)(=O)c2ccc(C(=O)O)cc2)c(C)c2ccccc12` [Example 97, 4-({(4-methyl-1-propylisoquinolin-3-yl)[4-(trifluoromethoxy)benzyl]amino}sulfonyl)benzoic acid], the IC50 came out at 11 nM.

As for `Cc1ccc2cnc(N(Cc3ccc(OC(F)(F)F)cc3)S(=O)(=O)c3ccc(C(=O)O)cc3)c(C)c2c1` [Example 135], the IC50 was 136 nM. Next, `O=C(O)c1ccc(S(=O)(=O)N(Cc2ccc(OC(F)(F)F)cc2)c2cc3c(Cl)cccc3c(Br)n2)cc1` [Example 148]: 287 nM.

Take `CC(=O)c1c(N(Cc2ccc(OC(F)(F)F)cc2)S(=O)(=O)c2ccc(C(=O)O)cc2)ncc2ccccc12` [Example 112, 4-({(4-acetylisoquinolin-3-yl)[4-(trifluoromethoxy)benzyl]amino}sulfonyl)benzoic acid]: the IC50 is 14 nM.

Consider `O=C(O)c1ccc(S(=O)(=O)N(c2ncc3ccccc3c2C2CC2)C2CCc3cc(OC(F)(F)F)ccc32)cc1` (stereo not drawn) [Example 187], for which the IC50 amounted to 128 nM.

In the case of `Cc1c(N(Cc2cc3c(F)cc(F)cc3s2)S(=O)(=O)c2ccc(C(=O)O)cc2)ncc2ccccc12` [Example 194], the IC50 came to 1.3 nM. Consider `Cc1c(N(Cc2ccc3c(c2)CCC3(C)C)S(=O)(=O)c2ccc(C(=O)O)cc2)ncc2ccccc12` [Example 61], for which the IC50 is 1.3 nM.

With `Cc1c(N(Cc2ccc(C(F)(F)C3(C)CC3)cc2)S(=O)(=O)c2ccc(C(=O)O)cc2)ncc2ccccc12` [Example 209], the IC50 was 1 nM. Next, `CNC(=O)c1ccc(S(=O)(=O)N(Cc2ccc(OC(F)(F)F)cc2)c2ncc3ccccc3c2C)cc1` [Example 238]: 103 nM; `COC(C)(c1ccc(CN(c2ncc3ccccc3c2C)S(=O)(=O)c2ccc(C(=O)O)cc2)cc1)C(F)(F)C(F)(F)F` (stereo not drawn) [Example 224]: 5.9 nM. As for `Cc1c(N(Cc2ccc3c(c2)CC(C)(C)O3)S(=O)(=O)c2ccc(C(=O)O)cc2)ncc2ccccc12` [Example 80], the figure is 18 nM; as for `Cc1cccc2cnc(N(Cc3ccc(OC(F)(F)F)cc3)S(=O)(=O)c3ccc(C(=O)O)cc3)c(C)c12` [Example 137], 3.1 nM. `Cc1c(N(Cc2ccc(OC(F)(F)F)cc2)S(=O)(=O)c2ccc(C(=O)O)cc2)nc(C(F)(F)F)c2ccccc12` [Example 108, 4-({[4-methyl-1-(trifluoromethyl)isoquinolin-3-yl][4-(trifluoromethoxy)benzyl]amino}sulfonyl)benzoic acid]: the IC50 is 21 nM.

Turning to `Cc1c(N(Cc2ccc3ccccc3c2)S(=O)(=O)c2ccc(C(=O)O)cc2)ncc2ccccc12` [Example 32], the IC50 was 8.6 nM.

As to `Cc1c(N(Cc2ccc(C(F)(F)C3CC3)cc2)S(=O)(=O)c2ccc(C(=O)O)cc2)ncc2ccccc12` [Example 191], the IC50 came to 4.6 nM. Turning to `CCc1c(N(Cc2ccc(OC(F)(F)F)cc2)S(=O)(=O)c2ccc(C(=O)O)cc2)ncc2ccccc12` [Example 155], the IC50 amounted to 6.2 nM. As for `Cc1c(N(Cc2ccc(OC(F)(F)F)cc2)S(=O)(=O)c2ccc(C(N)=O)cc2)ncc2ccccc12` [Example 123, 4-({(4-methylisoquinolin-3-yl)[4-(trifluoromethoxy)benzyl]amino}sulfonyl)benzamide], the figure is 21 nM; as for `O=C(O)c1ccc(S(=O)(=O)N(Cc2ccc(OC(F)(F)F)cc2)c2cc3ccccc3cn2)cc1` [Example 156], 23 nM. As for `Cc1ccc2c(C)c(N(Cc3ccc(OC(F)(F)F)cc3)S(=O)(=O)c3ccc(C(=O)O)cc3)ncc2c1` [Example 131], the figure is 109 nM.

Consider `Cc1c(N(Cc2ccc(C(F)(F)C3CC3)c(Cl)c2)S(=O)(=O)c2ccc(C(=O)O)cc2)nc(C2CC2)c2ccccc12` [Example 181], for which the IC50 stood at 1 nM. Regarding `Cc1c(N(Cc2ccc3ccn(C)c3c2)S(=O)(=O)c2ccc(C(=O)O)cc2)ncc2ccccc12` [Example 119, 4-{[[(1-methyl-1H-indol-6-yl)methyl](4-methylisoquinolin-3-yl)amino]sulfonyl}benzoic acid], the IC50 worked out at 92 nM. As for `Cc1c(N(Cc2ccc3c(c2)CCC3)S(=O)(=O)c2ccc(C(=O)O)cc2)ncc2ccccc12` [Example 60], the figure is 8.1 nM; as for `Cc1c(N(Cc2ccc(C(O)(C3CC3)C(F)(F)F)cc2)S(=O)(=O)c2ccc(C(=O)O)cc2)ncc2ccccc12` (stereo not drawn) [Example 177], 30 nM.
